The record followed here is PMC10587737, “Dracorhodin targeting CMPK2 attenuates inflammation: A novel approach to sepsis therapy” (Clinical and Translational Medicine, 2023).

The subject of series [1] is LPS-induced septic shock in C57BL/6 mice. As to the kind of experiment: LPS-induced septic shock model. In kind it is in vivo, mouse. As for the experimental part:
Sepsis was induced by intraperitoneal injection of 8- to 12-week-old gender-matched wild-type mice with LPS (E. coli O111:B4, Sigma-Aldrich) at 20 mg per kg body weight. Mouse survival was monitored every 1 h after injection for a total of 72 h. In a separate experiment, mice were treated with the same dose of LPS, and immune sera were collected 6 h post injection. Then, the abdominal cavity was washed with PBS. The levels of IL-1β and TNF-α in serum and peritoneal lavage ﬂuid were determined by ELISA. Then, the livers, kidneys and lungs were immediately removed and washed in ice-cold PBS. They were fixed with 4% paraformaldehyde, which was used for hematoxylin-eosin (H&E), Masson staining and Sirius red staining.

For a further series, the target named is T1, CMPK2 (Homo sapiens, UniProt Q5EBM0).
T1 sequence (Q5EBM0 22-449): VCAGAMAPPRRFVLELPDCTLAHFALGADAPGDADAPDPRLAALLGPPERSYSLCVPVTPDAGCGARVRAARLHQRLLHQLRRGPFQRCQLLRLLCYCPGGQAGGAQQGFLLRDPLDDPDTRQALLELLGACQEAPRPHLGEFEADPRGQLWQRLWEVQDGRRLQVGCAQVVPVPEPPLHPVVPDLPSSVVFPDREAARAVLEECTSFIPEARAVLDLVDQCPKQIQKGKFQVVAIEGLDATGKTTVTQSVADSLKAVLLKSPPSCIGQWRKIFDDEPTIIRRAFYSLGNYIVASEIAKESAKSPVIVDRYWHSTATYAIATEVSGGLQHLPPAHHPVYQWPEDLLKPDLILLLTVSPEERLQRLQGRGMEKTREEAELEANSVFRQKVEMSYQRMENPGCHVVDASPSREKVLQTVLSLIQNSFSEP
The series can be described thus: CMPK2 kinase activity assay (ADP-GLO). The series is classed as biochemical. In general terms: In ADP-Glo the light output rises with the ADP produced.

The test system of a further series is BMDMs. The series can be described thus: CCK-8 cytotoxicity assay. The settings on record: DP 5–80 μM. The series is classed as cell-based, mouse. As for the experimental part: To detect the viability of cells, a cell counting kit 8 (CCK-8) assay was performed. BMDMs were seeded at 1×10^6 cells/ml in a 96-well plate and incubated overnight at 37℃. Then, we treated the cells with different concentrations of DP (0-160 μM) for 24 h, added CCK-8 reagent to the cell medium and incubated the cells for 1 h. Then, the optical density was measured at a wavelength of 450 nm.
Background: Tetrazolium assays rely on reduction of a dye to a coloured formazan, in cell work by metabolically active cells.

The subject of series [2] is ASC oligomerization in BMDMs. The series can be described thus: ASC oligomerization assay. In kind it is cell-based, mouse. The settings on record: DP 12 h before or 1 h after LPS; ATP/Nigericin. As for the experimental part:
BMDMs were seeded at 1×10^6 cells/ml in 6-well plates. After cell adherence, BMDMs were treated with different concentrations of DP. The following day, the medium was replaced, and the cells were primed with 200 ng/ml LPS for 4 h and then stimulated with Nigericin or ATP for 45 min. BMDMs were primed with 200 ng/ml LPS for 4 h. The cells were treated with DP for 1 h and then stimulated with Nigericin or ATP for 45 min. The supernatant was removed, the cells were rinsed in ice-cold PBS, and then, the cells were lysed with NP-40 for 30 min. Lysates were centrifuged at 6000×g for 10 min at 4°C. The pellets were washed twice in 200 μl of ice-cold PBS and resuspended in 200 μl of PBS. Then, 2 mM disuccinimidyl suberate (DSS) was added to the resuspended pellets, which were incubated at room temperature for 30 min with rotation. Samples were then centrifuged at 6000×g for 10 min at 4°C. The cross-linked pellets were resuspended in 40 μl of 2× loading buffer and then boiled and analyzed by immunoblotting.

A further series has as its target CMPK2^Lys282 protein. The series can be described thus: MST binding to CMPK2 Lys282 mutant. Also noted: species or system human. The following applies: Lys282 mutated. As for the experimental part:
Human CMPK2 and K265, K282 and K320 mutated CMPK2 cDNA were cloned and inserted into the pTT5 vector, and the constructed plasmid was amplified by the DH5α strain. The C‐terminus of the cDNA was fused with a 6× His tag, and the N‐terminus was truncated by 22 amino acids (Figure 1B–F and Supporting Information Figure S5A,B). When the free‐style 293‐F cells reached the proper density, approximately 1 mg of expression plasmid was premixed with 3 mg polyethylenimine in UltraFectin medium and incubated prior to transfection. This mixture was then added to the appropriate amount of fresh cell culture medium, incubated for 30 min and collected after 48 h.
The MST assay is an emerging technique used to quantitatively elucidate binding. The binding parameter between CMPK2 and DP was measured using MST on a Monolith NT.115 system (Germany). CMPK2 was fluorescently labeled with the Monolith NT Protein Labeling Kit RED (L018, NanoTemper Technologies GmbH, Munich, Germany) according to the manufacturer’s instructions. The Monolith NT.115 system was used with Monolith NT.115 standard capillaries (M0-K022). MST assay buffer was used to dilute the labeled CMPK2 to 2 μM. […] The binding and dissociation constants (Kd) were evaluated and calculated using M0-Affinity analysis software version 2.1.3 (Nano Temper Technologies) for the ligand.

The subject of series [3] is cellular CMPK2 activity in BMDMs. The series can be described thus: Effect on cellular CMPK2 activity (ADP-Glo on cell lysates). The series is classed as cell-based, mouse. As for the experimental part: Primary BMDMs were generated by culturing mouse bone marrow cells in the presence of 20 ng/ml M-CSF conditioned medium for 7 days. BMDMs were seeded in 6-well plates overnight in FBS-free DMEM. After adhering to the wall, different concentrations of DP were added and treated for 12 hours. On day 2, after priming with ultrapure LPS (200 ng/ml) for 4 h, BMDMs (1 × 10^6 cells/ml) were further stimulated with ATP (4 mM) or Nigericin (10 μM) for 45 min. Cell lysates were collected for ADP-Glo™ Kinase Assay (Promega, Madison, WI, USA).

Setting [4] is: myeloid tissue, western blot, DP 40 mg/kg.
The mark [5] stands for this setting: serum and peritoneal lavage fluid, DP 2 h pre-treatment, 6 h LPS.

In general, IC50 refers to the midpoint of a concentration-inhibition curve. One may read the inhibition as how much of the control response was suppressed. On to `COc1c2ccc(-c3ccccc3)oc-2cc(=O)c1C` [compound 73, Dracohodin perochlorate], for which, in series [1] (BIOPAC System-MP160), the “blood pressure (hypotension)” value is recorded as “could improve hypotension” and the heart rate result is listed as “no significant difference”. In addition, the blood pressure changes entry in series [1] (BP-2010A instrument) was “not captured significant differences”. In addition, in series [1] (DP 40 mg/kg given before or after sepsis outbreak), the survival rate result was “significantly improved”. Also, the “survival (lethal inflammation)” value in series [1] (DP 10, 20, 40 mg/kg 2 h before LPS 20 mg/kg i.p., 72 h) is reported as “suppressed the lethal inflammation”. Moreover, the “LPS-induced inflammatory infiltration and fibrosis” value in series [1] (liver, lung, kidney histopathology, DP 10, 20, 40 mg/kg) is listed as “distinctly alleviated”. Besides, the “body weight, body temperature and heart rate” value in series [1] (model group vs drug administration groups) is listed as “no significant difference”. In addition, in series [1] (setting [4]), the “CMPK2 expression in vivo” value was “markedly blocked” and the “activated caspase-1” value is recorded as “prevents the increase”. Moreover, in series [1] (setting [5]), the IL-1β production entry is “reduced” and the TNF-α production result is “did not affect”. Besides, the CMPK2 activity entry at CMPK2 (1 mM DP) is recorded as “completely inhibited”. In addition, the IC50 on CMPK2 (kinase activity assay, experimental triplicates, read-out: IC50 with respect to CMPK2) is 1.34 µM. Besides, the inhibition at 10 µM on CMPK2 (read-out: CMPK2 inhibition) was more than 50%. Moreover, the cell viability entry in the series with BMDMs is given as “no significant change”. Besides, the ASC oligomerization result in series [2] is reported as “blocked”. The “binding (Kd by MST)” value at CMPK2^Lys282 protein was “no binding”. The “cellular CMPK2 inhibition” value in series [3] (DP 10 μM) is reported as “enhanced significantly”. For the same compound, the “cellular CMPK2 enzyme activity” value in series [3] (DP 2.5 and 5 μM) is reported as “tendency to inhibit”.
